Key:
Experiment in all cases: KINOMEscan
Format in all cases: binding
Conditions in all cases: read-out: %Ctrl @ 1000 nM
PAK2 = biological target: T1, PAK2 (Homo sapiens, UniProt Q13177)
T1 construct: purchased DiscoveRx KINOMEscan

RIPK5 = biological target: T2, RIPK5 (Homo sapiens, UniProt Q6XUX3)
T2 construct: purchased DiscoveRx KINOMEscan

RIOK2 = biological target: T3, RIOK2 (Homo sapiens, UniProt Q9BVS4)
T3 construct: purchased DiscoveRx KINOMEscan

FLT3(D835H) = biological target: T4, FLT3(D835H) (Homo sapiens, UniProt P36888, D835H)
T4 construct: purchased DiscoveRx KINOMEscan

DDR1 = biological target: T5, DDR1 (Homo sapiens, UniProt Q08345)
T5 construct: purchased DiscoveRx KINOMEscan

NEK9 = biological target: T6, NEK9 (Homo sapiens, UniProt Q8TD19)
T6 construct: purchased DiscoveRx KINOMEscan
T6 sequence (Q8TD19 whole entry): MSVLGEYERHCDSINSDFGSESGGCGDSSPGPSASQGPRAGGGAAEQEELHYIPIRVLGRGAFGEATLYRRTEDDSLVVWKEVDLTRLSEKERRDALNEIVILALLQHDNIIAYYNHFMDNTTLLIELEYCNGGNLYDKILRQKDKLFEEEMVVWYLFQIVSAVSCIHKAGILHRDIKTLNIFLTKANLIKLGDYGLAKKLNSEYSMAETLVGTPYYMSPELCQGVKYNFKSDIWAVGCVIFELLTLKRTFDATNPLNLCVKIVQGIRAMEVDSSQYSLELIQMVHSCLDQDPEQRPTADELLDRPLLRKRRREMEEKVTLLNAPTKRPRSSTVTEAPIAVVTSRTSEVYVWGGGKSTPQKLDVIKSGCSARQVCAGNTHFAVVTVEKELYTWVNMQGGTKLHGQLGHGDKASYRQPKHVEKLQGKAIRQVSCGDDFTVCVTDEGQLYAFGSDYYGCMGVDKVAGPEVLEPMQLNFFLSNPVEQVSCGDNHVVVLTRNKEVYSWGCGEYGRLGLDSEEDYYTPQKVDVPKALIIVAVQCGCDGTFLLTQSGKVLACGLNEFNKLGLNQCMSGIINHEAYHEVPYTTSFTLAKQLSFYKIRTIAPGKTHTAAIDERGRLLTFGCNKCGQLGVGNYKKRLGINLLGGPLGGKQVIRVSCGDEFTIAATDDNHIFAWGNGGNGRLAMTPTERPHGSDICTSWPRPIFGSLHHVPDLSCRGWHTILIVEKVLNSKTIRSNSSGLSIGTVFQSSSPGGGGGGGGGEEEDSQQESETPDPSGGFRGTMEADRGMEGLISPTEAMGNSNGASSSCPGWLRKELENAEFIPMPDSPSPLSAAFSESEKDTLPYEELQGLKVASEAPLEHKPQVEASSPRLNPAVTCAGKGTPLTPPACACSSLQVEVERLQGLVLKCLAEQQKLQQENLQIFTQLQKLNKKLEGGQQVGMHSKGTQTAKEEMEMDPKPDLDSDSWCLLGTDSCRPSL

NDR2 = biological target: T7, NDR2 (Homo sapiens, UniProt Q9Y2H1)
T7 construct: purchased DiscoveRx KINOMEscan

BTK = biological target: T8, BTK (Homo sapiens, UniProt Q06187)
T8 construct: purchased DiscoveRx KINOMEscan

PAK6 = biological target: T9, PAK6 (Homo sapiens, UniProt Q9NQU5)
T9 construct: purchased DiscoveRx KINOMEscan

p38-beta = biological target: T10, p38-beta (Homo sapiens, UniProt Q15759)
T10 construct: purchased DiscoveRx KINOMEscan

ACVR1B = biological target: T11, ACVR1B (Homo sapiens, UniProt P36896)
T11 construct: purchased DiscoveRx

ADCK4 = biological target: T12, ADCK4 (Homo sapiens, UniProt Q96D53)
T12 construct: purchased DiscoveRx KINOMEscan
T12 sequence (Q96D53 whole entry): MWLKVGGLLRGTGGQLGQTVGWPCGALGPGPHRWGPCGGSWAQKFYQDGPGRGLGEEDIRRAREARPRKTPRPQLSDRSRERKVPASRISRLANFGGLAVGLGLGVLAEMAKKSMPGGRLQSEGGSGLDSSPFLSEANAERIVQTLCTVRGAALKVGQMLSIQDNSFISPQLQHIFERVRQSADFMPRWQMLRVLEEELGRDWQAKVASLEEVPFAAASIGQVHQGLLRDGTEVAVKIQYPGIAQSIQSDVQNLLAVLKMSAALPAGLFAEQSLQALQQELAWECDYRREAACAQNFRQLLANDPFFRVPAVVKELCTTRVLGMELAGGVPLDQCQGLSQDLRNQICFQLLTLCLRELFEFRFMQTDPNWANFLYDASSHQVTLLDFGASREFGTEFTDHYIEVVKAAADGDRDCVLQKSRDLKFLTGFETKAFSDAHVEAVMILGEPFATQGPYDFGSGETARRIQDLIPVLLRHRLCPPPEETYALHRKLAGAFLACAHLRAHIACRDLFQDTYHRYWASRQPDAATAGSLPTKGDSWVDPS

AURKC = biological target: T13, AURKC (Homo sapiens, UniProt Q9UQB9)
T13 construct: purchased DiscoveRx KINOMEscan

GRK4 = biological target: T14, GRK4 (Homo sapiens, UniProt P32298)
T14 construct: purchased DiscoveRx KINOMEscan

CASK = biological target: T15, CASK (Homo sapiens, UniProt O14936)
T15 construct: purchased DiscoveRx KINOMEscan

CDK3 = biological target: T16, CDK3 (Homo sapiens, UniProt Q00526)
T16 construct: purchased DiscoveRx KINOMEscan

ALK(C1156Y) = biological target: T17, ALK(C1156Y) (Homo sapiens, UniProt Q9UM73, C1156Y)
T17 construct: purchased DiscoveRx KINOMEscan

PCTK2 = biological target: T18, PCTK2 (Homo sapiens, UniProt Q00537)
T18 construct: purchased DiscoveRx KINOMEscan

PIM2 = biological target: T19, PIM2 (Homo sapiens, UniProt Q9P1W9)
T19 construct: purchased DiscoveRx KINOMEscan
T19 sequence (Q9P1W9 whole entry): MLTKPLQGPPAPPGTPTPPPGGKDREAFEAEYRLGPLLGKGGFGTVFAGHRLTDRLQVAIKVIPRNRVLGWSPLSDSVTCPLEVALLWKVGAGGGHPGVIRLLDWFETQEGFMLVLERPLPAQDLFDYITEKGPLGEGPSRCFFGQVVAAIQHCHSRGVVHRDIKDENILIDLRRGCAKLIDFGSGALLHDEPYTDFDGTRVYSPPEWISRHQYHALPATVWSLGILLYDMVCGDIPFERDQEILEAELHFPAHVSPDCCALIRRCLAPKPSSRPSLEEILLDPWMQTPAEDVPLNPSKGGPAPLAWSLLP

FLT3(D835Y) = biological target: T20, FLT3(D835Y) (Homo sapiens, UniProt P36888, D835Y)
T20 construct: purchased DiscoveRx KINOMEscan

MST1 = biological target: T21, MST1 (Homo sapiens, UniProt Q13043)
T21 construct: purchased DiscoveRx KINOMEscan

FER = biological target: T22, FER (Homo sapiens, UniProt P16591)
T22 construct: purchased DiscoveRx KINOMEscan

MST2 = biological target: T23, MST2 (Homo sapiens, UniProt Q13188)
T23 construct: purchased DiscoveRx KINOMEscan
T23 sequence (Q13188 whole entry): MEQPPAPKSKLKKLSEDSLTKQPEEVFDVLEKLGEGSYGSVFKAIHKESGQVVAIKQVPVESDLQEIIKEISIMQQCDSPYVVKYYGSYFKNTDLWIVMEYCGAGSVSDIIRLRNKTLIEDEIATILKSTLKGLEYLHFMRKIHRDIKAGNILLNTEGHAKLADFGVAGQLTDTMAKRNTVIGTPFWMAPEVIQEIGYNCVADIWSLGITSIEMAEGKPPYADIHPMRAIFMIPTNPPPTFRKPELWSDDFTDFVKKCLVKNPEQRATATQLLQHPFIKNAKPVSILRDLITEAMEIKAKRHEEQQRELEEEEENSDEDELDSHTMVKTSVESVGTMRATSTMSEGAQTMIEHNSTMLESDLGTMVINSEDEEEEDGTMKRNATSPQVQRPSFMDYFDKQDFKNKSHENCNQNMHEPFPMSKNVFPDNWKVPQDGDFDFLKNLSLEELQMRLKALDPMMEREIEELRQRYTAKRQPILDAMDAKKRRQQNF

LIMK1 = biological target: T24, LIMK1 (Homo sapiens, UniProt P53667)
T24 construct: purchased DiscoveRx KINOMEscan

ACVRL1 = biological target: T25, ACVRL1 (Homo sapiens, UniProt P37023)
T25 construct: purchased DiscoveRx KINOMEscan

ICK = biological target: T26, ICK (Homo sapiens, UniProt Q9UPZ9)
T26 construct: purchased DiscoveRx KINOMEscan
T26 sequence (Q9UPZ9 whole entry): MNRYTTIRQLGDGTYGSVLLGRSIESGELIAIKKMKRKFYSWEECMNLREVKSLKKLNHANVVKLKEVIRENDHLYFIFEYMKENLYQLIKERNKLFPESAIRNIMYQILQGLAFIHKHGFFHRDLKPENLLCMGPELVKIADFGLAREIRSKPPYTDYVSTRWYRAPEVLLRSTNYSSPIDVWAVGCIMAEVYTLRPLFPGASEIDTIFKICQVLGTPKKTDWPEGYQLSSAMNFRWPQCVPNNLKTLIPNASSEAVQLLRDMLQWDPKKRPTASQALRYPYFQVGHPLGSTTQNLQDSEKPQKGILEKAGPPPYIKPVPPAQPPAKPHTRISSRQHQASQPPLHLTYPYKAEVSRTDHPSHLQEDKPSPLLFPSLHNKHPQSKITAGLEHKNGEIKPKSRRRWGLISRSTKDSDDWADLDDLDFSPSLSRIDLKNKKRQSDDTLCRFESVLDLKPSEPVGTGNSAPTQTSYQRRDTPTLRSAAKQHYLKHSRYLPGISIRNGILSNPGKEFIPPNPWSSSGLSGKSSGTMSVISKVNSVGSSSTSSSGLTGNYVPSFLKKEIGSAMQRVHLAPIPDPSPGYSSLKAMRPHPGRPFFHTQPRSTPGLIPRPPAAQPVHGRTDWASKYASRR

KIT(L576P) = biological target: T27, KIT(L576P) (Homo sapiens, UniProt P10721, L576P)
T27 construct: purchased DiscoveRx KINOMEscan

MAST1 = biological target: T28, MAST1 (Homo sapiens, UniProt Q9Y2H9)
T28 construct: purchased DiscoveRx KINOMEscan
T28 sequence (Q9Y2H9 whole entry): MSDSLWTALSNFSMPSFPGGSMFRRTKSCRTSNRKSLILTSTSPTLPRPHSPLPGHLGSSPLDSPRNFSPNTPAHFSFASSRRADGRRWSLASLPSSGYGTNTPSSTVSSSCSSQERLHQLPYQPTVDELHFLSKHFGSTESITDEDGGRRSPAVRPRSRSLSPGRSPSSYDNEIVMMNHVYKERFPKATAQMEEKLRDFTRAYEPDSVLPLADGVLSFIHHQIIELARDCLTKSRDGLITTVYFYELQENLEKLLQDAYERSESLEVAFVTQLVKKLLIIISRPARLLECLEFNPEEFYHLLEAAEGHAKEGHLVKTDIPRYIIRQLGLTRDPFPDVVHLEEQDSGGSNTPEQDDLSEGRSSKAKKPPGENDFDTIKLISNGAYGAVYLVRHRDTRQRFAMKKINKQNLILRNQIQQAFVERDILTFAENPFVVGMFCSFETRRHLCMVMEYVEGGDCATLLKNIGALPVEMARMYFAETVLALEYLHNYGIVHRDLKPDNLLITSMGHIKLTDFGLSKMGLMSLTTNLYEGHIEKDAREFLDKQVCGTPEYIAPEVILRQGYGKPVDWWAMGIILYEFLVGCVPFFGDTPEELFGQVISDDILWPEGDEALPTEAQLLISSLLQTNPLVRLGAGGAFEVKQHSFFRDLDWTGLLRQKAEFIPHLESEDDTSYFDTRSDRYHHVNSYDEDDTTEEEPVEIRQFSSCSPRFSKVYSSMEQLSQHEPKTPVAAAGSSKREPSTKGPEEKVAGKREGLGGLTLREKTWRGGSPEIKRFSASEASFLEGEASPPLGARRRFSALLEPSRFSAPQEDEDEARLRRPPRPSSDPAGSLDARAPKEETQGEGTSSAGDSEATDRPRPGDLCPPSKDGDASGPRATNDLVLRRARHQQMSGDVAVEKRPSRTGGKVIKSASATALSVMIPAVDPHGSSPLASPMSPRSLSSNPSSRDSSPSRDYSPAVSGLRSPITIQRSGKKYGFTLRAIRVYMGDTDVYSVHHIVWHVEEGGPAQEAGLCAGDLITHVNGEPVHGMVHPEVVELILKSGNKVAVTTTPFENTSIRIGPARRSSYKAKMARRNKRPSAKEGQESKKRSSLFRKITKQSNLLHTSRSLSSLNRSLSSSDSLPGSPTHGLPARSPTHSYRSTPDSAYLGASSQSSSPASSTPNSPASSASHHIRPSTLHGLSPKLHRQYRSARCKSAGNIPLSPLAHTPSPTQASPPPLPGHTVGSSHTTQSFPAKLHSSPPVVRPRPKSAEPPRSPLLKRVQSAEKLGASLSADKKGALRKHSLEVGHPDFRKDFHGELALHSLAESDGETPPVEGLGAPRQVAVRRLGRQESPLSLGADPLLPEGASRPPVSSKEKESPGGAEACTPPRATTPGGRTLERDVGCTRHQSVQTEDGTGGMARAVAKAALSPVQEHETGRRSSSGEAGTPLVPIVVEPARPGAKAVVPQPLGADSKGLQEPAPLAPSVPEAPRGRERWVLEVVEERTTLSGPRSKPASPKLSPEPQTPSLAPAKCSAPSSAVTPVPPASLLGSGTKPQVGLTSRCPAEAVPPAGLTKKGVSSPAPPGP

EPHB1 = biological target: T29, EPHB1 (Homo sapiens, UniProt P54762)
T29 construct: purchased DiscoveRx KINOMEscan

PAK1 = biological target: T30, PAK1 (Homo sapiens, UniProt Q13153)
T30 construct: purchased DiscoveRx KINOMEscan

GAK = biological target: T31, GAK (Homo sapiens, UniProt O14976)
T31 construct: purchased DiscoveRx KINOMEscan

FLT3(N841I) = biological target: T32, FLT3(N841I) (Homo sapiens, UniProt P36888, N841I)
T32 construct: purchased DiscoveRx KINOMEscan

ROCK1 = biological target: T33, ROCK1 (Homo sapiens, UniProt Q13464)
T33 construct: purchased DiscoveRx KINOMEscan

FGFR3 = biological target: T34, FGFR3 (Homo sapiens, UniProt P22607)
T34 construct: purchased DiscoveRx KINOMEscan

YSK1 = biological target: T35, YSK1 (Homo sapiens, UniProt O00506)
T35 construct: purchased DiscoveRx
T35 sequence (O00506 whole entry): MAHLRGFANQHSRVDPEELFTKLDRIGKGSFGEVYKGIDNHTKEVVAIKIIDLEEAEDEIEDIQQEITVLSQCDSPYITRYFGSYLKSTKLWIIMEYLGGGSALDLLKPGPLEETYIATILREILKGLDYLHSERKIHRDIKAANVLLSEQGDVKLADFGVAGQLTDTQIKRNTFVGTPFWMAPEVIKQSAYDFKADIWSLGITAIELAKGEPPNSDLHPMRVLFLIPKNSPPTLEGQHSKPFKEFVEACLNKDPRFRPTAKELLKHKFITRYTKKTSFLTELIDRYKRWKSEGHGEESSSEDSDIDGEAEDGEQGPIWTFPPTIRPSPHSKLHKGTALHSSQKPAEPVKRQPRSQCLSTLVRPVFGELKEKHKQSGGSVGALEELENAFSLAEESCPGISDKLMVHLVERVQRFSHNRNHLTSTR

EGFR = biological target: T36, EGFR (Homo sapiens, UniProt P00533)
T36 construct: purchased DiscoveRx KINOMEscan

TNNI3K = biological target: T37, TNNI3K (Homo sapiens, UniProt Q59H18)
T37 construct: purchased DiscoveRx KINOMEscan

PRKD1 = biological target: T38, PRKD1 (Homo sapiens, UniProt Q15139)
T38 construct: purchased DiscoveRx KINOMEscan

CDC2L2 = biological target: T39, CDC2L2 (Homo sapiens, UniProt Q9UQ88)
T39 construct: purchased DiscoveRx KINOMEscan

AKT1 = biological target: T40, AKT1 (Homo sapiens, UniProt P31749)
T40 construct: purchased DiscoveRx KINOMEscan

ABL1-phosphorylated = biological target: T41, ABL1-phosphorylated (Homo sapiens, UniProt P00519)
T41 construct: purchased DiscoveRx

PRKCH = biological target: T42, PRKCH (Homo sapiens, UniProt P24723)
T42 construct: purchased DiscoveRx KINOMEscan

PFPK5(P.falciparum) = biological target: T43, PFPK5(P.falciparum) (Plasmodium falciparum, UniProt P61075)
T43 construct: purchased DiscoveRx KINOMEscan

[1] = biological target: T44, ABL1(F317I)-nonphosphorylated (Homo sapiens, UniProt P00519, F317I)
T44 construct: purchased DiscoveRx (KINOMEscan service)

CCN(C(=O)CO)[C@H]1CN(/C(=N\C#N)Nc2cccc(OC(F)F)c2)N=C1c1ccc(Cl)c(Cl)c1 [(S)-4]
remaining binding at 1 µM (PAK2): 89%
remaining binding at 1 µM (RIPK5): 90%
remaining binding at 1 µM (RIOK2): 100%
remaining binding at 1 µM (FLT3(D835H)): 93%
remaining binding at 1 µM (DDR1): 96%
remaining binding at 1 µM (NEK9): 100%
remaining binding at 1 µM (NDR2): 76%
remaining binding at 1 µM (BTK): 79%
remaining binding at 1 µM (PAK6): 100%
remaining binding at 1 µM (p38-beta): 100%
remaining binding at 1 µM (ACVR1B): 100%
remaining binding at 1 µM (ADCK4): 81%
remaining binding at 1 µM (AURKC): 77%
remaining binding at 1 µM (GRK4): 98%
remaining binding at 1 µM (CASK): 61%
remaining binding at 1 µM (CDK3): 91%
remaining binding at 1 µM (ALK(C1156Y)): 100%
remaining binding at 1 µM (PCTK2): 91%
remaining binding at 1 µM (PIM2): 90%
remaining binding at 1 µM (FLT3(D835Y)): 78%
remaining binding at 1 µM (MST1): 68%
remaining binding at 1 µM (FER): 68%
remaining binding at 1 µM (MST2): 88%
remaining binding at 1 µM (LIMK1): 100%
remaining binding at 1 µM (ACVRL1): 74%
remaining binding at 1 µM (ICK): 99%
remaining binding at 1 µM (KIT(L576P)): 85%
remaining binding at 1 µM (MAST1): 83%
remaining binding at 1 µM (EPHB1): 94%
remaining binding at 1 µM (PAK1): 84%
remaining binding at 1 µM (GAK): 100%
remaining binding at 1 µM (FLT3(N841I)): 95%
remaining binding at 1 µM (ROCK1): 98%
remaining binding at 1 µM (FGFR3): 88%
remaining binding at 1 µM (YSK1): 90%
remaining binding at 1 µM (EGFR): 99%
remaining binding at 1 µM (TNNI3K): 73%
remaining binding at 1 µM (PRKD1): 86%
remaining binding at 1 µM (CDC2L2): 92%
remaining binding at 1 µM (AKT1): 84%
remaining binding at 1 µM (ABL1-phosphorylated): 90%
remaining binding at 1 µM (PRKCH): 80%
remaining binding at 1 µM (PFPK5(P.falciparum)): 100%
remaining binding at 1 µM [1]: 100%
